Tests used:
[1] = system: neointima formation following balloon catheter-induced injury of the common carotid arteries; assay: Neointima formation after balloon catheter-induced injury of the common carotid arteries; format: in vivo, male Wistar rats
Procedure: Two of test compounds discovered using the methods of the present invention, particularly shown in Example VI, compositions RUS 3052 and RUS 3108, were evaluated for efficacy in the reduction of neointima formation following balloon catheter-induced injury of the common carotid arteries of male Wistar rats. Thirty-two rats were divided into groups of eight animals per group: two test compound groups and two control groups. The two control groups were the positive control, 5 mg/kg probucol, and the negative control, the vehicle for the test compositions and the positive control probucol. […] The vehicle solution was 10% DMSO, 10% cremophor, 20% propylene glycol in water for injection. Test compositions RUS 3052 and RUS 3108 were initially administered at 5 mg/kg up to and including the day of surgery. Starting the day after surgery, until the end of the study, the dosage of all compositions was lowered to 1 mg/kg. The test compositions were prepared by combining 5 mg of the test compound or control with 100 μl DMSO, 100 μl cremophor EL, and 200 μl propylene glycol with intermittent mixing using a cyclomixer. Water for injection was added in 100 μl aliquots to give a final volume of 1 ml.
The test compositions and controls were administered daily by intraperitoneal injection starting 72 hours prior to the surgical procedure and continued until necropsy, 14 days after the procedure. One animal from each of the four groups underwent the surgical procedure each day using a #2F Fogarty embolectomy catheter. An embolectomy catheter was introduced into the right external carotid artery and retrogradely passed to the aortic arch through the common carotid artery. The balloon was inflated with sterile saline and then pulled to the common carotid-external carotid bifurcation. […]
Fourteen days post-surgery, the animals of Example VII were euthanized and the damaged right carotid arteries were collected, sectioned and stained with modified elastin-trichrome, and then analyzed for neointima formation that was quantified by histomorphometric analysis. […]

human aortic SMC = assay: (3H)thymidine DNA synthesis / proliferation of sub-confluent SMC; format: cell-based; conditions: purified perlecan added to 10% serum-containing medium, 24 h
Procedure: Smooth muscle cells reach quiescence during serum starvation resulting in a blockade of DNA synthesis. […] The cells used in this Example and the other examples herein were human aortic SMC, grown in basal medium supplemented with growth factors, bFGF and epidermal growth factor (EGF) (Clonetics, San Diego, Calif.).
The addition of perlecan to serum-containing medium inhibited SMC growth by 70% (FIG. 2). Sub-confluent SMC (40-50% confluence) were incubated in serum-free medium or 10% serum-containing medium with or without purified perlecan for 24 h. DNA synthesis was then determined by incubating cells for another 5 h in medium containing (^3H)thymidine. TCA precipitable (DNA) thymidine counts were determined and expressed as percentage of DNA synthesis in cells grown in 10%FBS.
Perlecan, induced in serum-free conditions, was required for the blockade of DNA synthesis observed in serum-free conditions. The anti-perlecan antibody of Example I was used to block perlecan. Sub-confluent levels of SMC (40-50% confluence) were incubated in serum-free medium containing 0, 5, 10 and 20 μg of mouse IgG or anti-perlecan IgG for 24 hours. DNA synthesis was then determined by incubating cells for another 5 hours in medium containing (^3H)thymidine. TCA precipitable (DNA) (^3H)thymidine counts were determined and expressed as percentage of DNA synthesis in cells grown in 10% FBS. […]

| Molecule | IA/MA Average ± STD (n), Based on Section Averages ([1]; rat, i.p. daily, 5 mg/kg up to surgery then 1 mg/kg, 14 days post-surgery, all sections within group) | IA/MA Average ± STD (n), Based on Animal Averages ([1]; rat, i.p. daily, 5 mg/kg up to surgery then 1 mg/kg, 14 days post-surgery, sections with IA/MA > 0.0915) | reduction of neointima formation in comparison to the negative control group ([1]; significance set at p<0.20) | inhibition of SMC growth (DNA synthesis, percentage of cells grown in 10% FBS) (human aortic SMC) [%] |
| --- | --- | --- | --- | --- |
| CC(C)(Sc1cc(C(C)(C)C)c(O)c(C(C)(C)C)c1)Sc1cc(C(C)(C)C)c(O)c(C(C)(C)C)c1 [Probucol, probucol] | 0.71 ± 0.30 (9) | 0.65 ± 0.25 (3) | effective in significantly reducing neointima formation |  |
| perlecan |  |  |  | 70 |

From patent US20020182587A1, “Methods and compositions for the treatment and prevention of smooth muscle cell proliferation” (priority 2001, published 2002)
